Experimental data taken from paper PMC8219695 (Nature Communications, 2021).
Where “and” joins values, the source holds several entries; their conditions need not be identical. Equal values may be shown once.

What was measured:
mDOR = molecular target: T1, mDOR (Mus musculus, UniProt P32300); assay: [125I]BNtxA radioligand competition binding, mouse DOR; conditions: mean ± SEM, n = 3; [125I]BNtxA; read-out: Ki ± SEM mDOR
T1 construct: expressed in transfected cells

hMOR [1] = molecular target: T2, hMOR (Homo sapiens, UniProt P35372); assay: CAMYEL BRET cAMP agonist assay at hMOR; format: cell-based; conditions: for cAMP %: hMOR, single replicates, source data Fig 6c, listed as C11-F-7OH (22)
T2 construct: expressed in transfected cells; plasmid a gift from Dr. Nevin Lambert

rKOR = molecular target: T3, rKOR (Rattus norvegicus, UniProt P34975); assay: CAMYEL BRET cAMP agonist assay at rKOR; format: cell-based; conditions: individual replicates, Supplementary Figure 8B source data
T3 construct: expressed in transfected cells

mMOR [2] = molecular target: T4, mMOR (Mus musculus, UniProt P42866); assay: CAMYEL BRET cAMP agonist assay at mMOR; format: cell-based; conditions: mMOR; for cAMP %: single replicates, source data Fig 6b, listed as C11-F-7OH (22)
T4 construct: signal peptide (heterologous, not specified) (N); expressed in transfected cells; pcDNA3.1(+) construct made in house

hDOR = hDOR (Homo sapiens, UniProt P41143); assay: CAMYEL BRET cAMP agonist assay at hDOR; format: cell-based; conditions: for Agonist activity of 7OH analogs at hDOR: single replicate values, Supplementary Figure 7A
mKOR = molecular target: T5, mKOR (Mus musculus, UniProt P33534); assay: [125I]BNtxA radioligand competition binding, mouse KOR; conditions: mean ± SEM, n = 3; [125I]BNtxA; read-out: Ki ± SEM mKOR
T5 construct: expressed in transfected cells; membranes

hMOR [3] = molecular target: T2, hMOR; assay: cell-based
mMOR [4] = molecular target: T4, mMOR; assay: CAMYEL BRET antagonism assay at mMOR (inhibition of DAMGO); format: cell-based; conditions: for Antagonist activity at mMOR, raw signal (single replicate values): source data of Fig 8a and Table 5, listed as C11-F-7OH (22);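 for Antagonist activity at mMOR, raw signal (single replicate values): BRET signal rises as cAMP falls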
[5] = Log[drug] (M) -13, cAMP inhibition as % of DAMGO

## CC[C@@H]1CN2CC[C@@]3(O)C(=Nc4cc(F)cc(OC)c43)[C@@H]2C[C@@H]1/C(=C\OC)C(=O)OC [11-F-7OH (22), 11-Fluoro-7-hydroxymitragynine]
mDOR
  Ki: 35.8 ± 2 nM
hMOR [1]
  EC50: 29.4 nM
  Emax: 57%
hMOR [1]; Log[drug] (M) -5
  cAMP %: 51.264% and 45.9513% and 58.1795% and 79.6476% and 68.1188% and 65.3013% and 52.2398% and 64.2986% and 49.6622%
hMOR [1]; Log[drug] (M) -6
  cAMP %: 56.7369% and 57.602% and 54.9333% and 67.8605% and 67.5648% and 53.8544% and 46.4412% and 33.3921% and 44.9213%
hMOR [1]; Log[drug] (M) -7
  cAMP %: 48.1791% and 37.8893% and 39.1827% and 53.5374% and 50.3292% and 51.3541% and 36.9409% and 28.5036% and 44.2511%
hMOR [1]; Log[drug] (M) -8
  cAMP %: 15.2392% and 22.4344% and 23.7656% and 25.1778% and 17.6434% and 19.3494% and 5.0692% and 13.2412% and 14.3735%
hMOR [1]; Log[drug] (M) -9
  cAMP %: 4.113% and -7.3719% and 5.178% and 7.448% and -11.6959% and 4.5476% and -1.276% and -3.182% and 19.3939%
hMOR [1]; Log[drug] (M) -10
  cAMP %: 2.241% and -1.74% and -0.501% and 4.727% and -5.3691% and 0.6426% and 5.237% and 2.017% and 7.517%
hMOR [1]; Log[drug] (M) -11
  cAMP %: 9.244% and 1.716% and -4.082% and 4.12% and 6.65% and 8.68% and 7.357% and 0.1804% and -7.538%
hMOR [1]; [5]
  cAMP %: 3.279% and -3.532% and 2.642% and -0.9485% and 1.819% and 3.865% and 2.979% and -0.05442% and 0.9166%
rKOR; Log [drug](M) -5
  Agonist activity of 7OH analogs at rKOR: 22.082 and 29.1799 and 24.9804 and 9.107 and 13.0188 and 13.182 and 6.083 and 2.973 and 4.112
rKOR; Log [drug](M) -6
  Agonist activity of 7OH analogs at rKOR: 13.2987 and 25.9578 and 3.4416 and 5.534 and 11.6761 and -0.5648 and 7.283 and 13.1071 and 4.997
rKOR; Log [drug](M) -7
  Agonist activity of 7OH analogs at rKOR: 18.031 and 31.9599 and 33.0367 and -2.212 and 3.5973 and -1.385 and 1.635 and 2.31 and 9.2799
rKOR; Log [drug](M) -8
  Agonist activity of 7OH analogs at rKOR: 5.787 and -5.909 and 29.0355 and 11.9094 and 9.551 and -12.1962 and 10.3961 and -3.525 and 1.154
rKOR; Log [drug](M) -9
  Agonist activity of 7OH analogs at rKOR: 2.374 and 3.557 and 1.503 and 17.2927 and 4.288 and -5.051 and 9.998 and -1.969 and -2.384
rKOR; Log [drug](M) -10
  Agonist activity of 7OH analogs at rKOR: 1.539 and 1.5713 and -3.1102 and 5.6014 and 10.9469 and 10.7639 and 2.853 and 4.901 and 1.67
rKOR; Log [drug](M) -11
  Agonist activity of 7OH analogs at rKOR: -1.844 and 21.6085 and 6.867 and 10.1299 and 11.9047 and -4.025 and 6.309 and -3.657 and -2.652
rKOR; Log [drug](M) -13
  Agonist activity of 7OH analogs at rKOR: 18.2754 and 7.8104 and 16.2642 and 12.0322 and 1.984 and 9.1095 and -1.886 and 4.583 and -1.369
mMOR [2]; Log[drug] (M) -5
  cAMP %: 18.6612% and 13.4113% and 8.551% and 30.7876% and 22.9326% and 28.8572% and 20.3955% and 21.355% and 24.4984%
mMOR [2]; Log[drug] (M) -6
  cAMP %: 25.4304% and 7.798% and 14.3775% and 23.1589% and 22.9335% and 14.5614% and 26.2834% and 10.6621% and 13.744%
mMOR [2]; Log[drug] (M) -7
  cAMP %: 4.791% and 10.9715% and 7.661% and 21.2718% and 20.4101% and 18.8827% and 13.0494% and 8.164% and 16.1975%
mMOR [2]; Log[drug] (M) -8
  cAMP %: 1.666% and 6.134% and 7.138% and 7.653% and 6.95% and 8.768% and 3.363% and -0.1101% and 16.7433%
mMOR [2]; Log[drug] (M) -9
  cAMP %: 0.8145% and -7.096% and 6.2815% and 3.889% and -6.162% and 2.273% and -4.16% and 0.06827% and 4.092%
mMOR [2]; Log[drug] (M) -10
  cAMP %: 13.6379% and 11.7751% and 16.0473% and 16.5566% and -2.169% and 7.345% and 0.7238% and 2.035% and 11.7782%
mMOR [2]; Log[drug] (M) -11
  cAMP %: 20.0905% and 12.8035% and 2.268% and 1.246% and -1.253% and 18.3526% and 6.666% and -0.8467% and -5.17%
mMOR [2]; [5]
  cAMP %: 13.7634% and 17.6649% and 9.384% and 11.7249% and -6.349% and 6.202% and -0.02358% and 4.732% and 0.04545%
mMOR [2]; maximal inhibitory effect on cAMP levels relative to DAMGO
  Emax: 21%
mMOR [2]; n = 3, read-out: EC50
  EC50: 97 nM
hDOR; Log[drug] (M) -5
  Agonist activity of 7OH analogs at hDOR: 35.2154 and 37.8271 and 20.1668 and 20.0459 and 27.5701 and 32.2497 and 21.4666 and 22.179 and 20.5682
hDOR; Log[drug] (M) -6
  Agonist activity of 7OH analogs at hDOR: 34.2535 and 17.385 and 29.3707 and 32.2245 and 19.3851 and 24.4275 and 22.3041 and 14.4734 and 13.6453
hDOR; Log[drug] (M) -7
  Agonist activity of 7OH analogs at hDOR: 30.3483 and 21.8663 and 22.0325 and 12.2379 and 10.9328 and 13.3432 and 3.216 and 7.058 and 2.651
hDOR; Log[drug] (M) -8
  Agonist activity of 7OH analogs at hDOR: 2.89 and -16.6078 and 13.7181 and 1.455 and 8.915 and -8.089 and -4.58 and 2.715 and 18.3397
hDOR; Log[drug] (M) -9
  Agonist activity of 7OH analogs at hDOR: 8.34 and 5.8475 and -3.905 and -8.29 and 12.1949 and 6.438 and 2.013 and 5.417
hDOR; Log[drug] (M) -10
  Agonist activity of 7OH analogs at hDOR: 4.091 and -4.63 and 8.526 and 11.2871 and -1.147 and 9.891 and 2.3909 and 3.977 and 19.4184
hDOR; Log[drug] (M) -11
  Agonist activity of 7OH analogs at hDOR: -7.5527 and 10.3457 and 6.839 and 6.552 and 7.529 and 1.024 and 18.8483 and 4.15 and -0.7846
hDOR; Log[drug] (M) -13
  Agonist activity of 7OH analogs at hDOR: -0.5197 and 3.103 and 0.8755 and 5.994 and 5.535 and -9.529 and 9.805 and -0.2765
hDOR; hDOR cAMP BRET, read-out: EC50
  EC50: 151 nM
hDOR; read-out: Emax
  Emax: 26%
mKOR
  Ki: 21 ± 3.2 nM
hMOR [3]
  IC50: 590 nM
mMOR [4]
  IC50: 260 nM
mMOR [4]; Log[drug] (M) -5
  Antagonist activity at mMOR, raw signal (single replicate values): 0.03322 and 0.03306 and 0.04505 and 0.03409 and 0.04171 and 0.03584 and 0.0591 and 0.05619 and 0.05325
mMOR [4]; Log[drug] (M) -6
  Antagonist activity at mMOR, raw signal (single replicate values): 0.06086 and 0.0551 and 0.06302 and 0.07276 and 0.06512 and 0.0766 and 0.06642 and 0.06116 and 0.08827
mMOR [4]; Log[drug] (M) -7
  Antagonist activity at mMOR, raw signal (single replicate values): 0.1571 and 0.1681 and 0.1534 and 0.1529 and 0.1704 and 0.1581 and 0.1507 and 0.1426 and 0.1477
mMOR [4]; Log[drug] (M) -8
  Antagonist activity at mMOR, raw signal (single replicate values): 0.2123 and 0.2016 and 0.2091 and 0.1893 and 0.2024 and 0.2047 and 0.1631 and 0.1656 and 0.156
mMOR [4]; Log[drug] (M) -9
  Antagonist activity at mMOR, raw signal (single replicate values): 0.2046 and 0.2165 and 0.2136 and 0.191 and 0.2101 and 0.1873 and 0.1659 and 0.1752 and 0.1707
mMOR [4]; Log[drug] (M) -10
  Antagonist activity at mMOR, raw signal (single replicate values): 0.2086 and 0.2076 and 0.2154 and 0.2091 and 0.201 and 0.211 and 0.1814 and 0.1819 and 0.178
